In US20120028929A1, “TETRACYCLINE STABILIZING FORMULATIONS” (ALACRITY BIOSCIENCE, INC., priority 2008, published 2012):
“And” between values parts separate entries of the source, which are not always exact repeats. Equal values may be shown once.

What was measured:
[1] = previous studies; cited from earlier work
[2] = Multi-dimensional parametric testing of doxycycline stability in aqueous solution; assay type: physicochemical; conditions: for doxycycline stability t = 0 / doxycycline stability 2 wks / doxycycline stability 4 wks: 250 μg/mL; for degradation: 2 weeks
Description: (§1) Standard methods known in the art are used for monitoring the degradation of tetracycline into its epimers or degradation products. For example, one method for monitoring tetracycline degradation is an analytical technique using chromatography, e.g. high pressure liquid chromatography (HPLC), to separate the various degradants, e.g. epimers and other degradants, and a sensitive detector to identify and quantify the concentrations of the drug and degradants over time.
A multi-dimensional parametric test on doxycycline stability was conducted to study the effect of pH, storage temperature and the presence of various chemical agents.

[3] = Combinatorial effect of antioxidants and tonicity adjustment agents in doxycycline stability; assay type: physicochemical; conditions: for doxycycline stability 5 Wks / doxycycline stability 8 Wks / doxycycline stability 12 Wks / doxycycline stability 2 Wks / doxycycline stability Init.: HPMC
Description: as §1

[4] = assay type: physicochemical
Method: The rate of doxycycline epimerization increased with temperature and time (see Table 7). […] Long-term storage (more than 18 months) should therefore be at refrigeration temperatures (2-8° C.) to minimize conversion of doxycycline to its epimers.
After 12 months of storage at 5° C., about 0.0014% w/w of the doxycycline in solution was lost to degradation. That is, original doxycyline concentration was 0.025% w/w and concentration after 12 months was 0.0236% w/w, corresponding to 94.4% Label Claim (LC).
The epimerization of doxycycline into 4-epidoxycycline is reversible, and the rate of 4-epidoxycycline formation is related to the kinetic equilibrium between the two compounds. Therefore, one method for specifically reducing the rate of doxycycline epimerization into 4-epidoxycycline is to fortify the formulation with 4-epidoxycycline.

[5] = Disodium Edetate, pH 5.3, 5° C.
[6] = Disodium Edetate, pH 5.3, 25° C.
[7] = Sodium Metabisulfite, pH 5.3, 5° C.
[8] = Sodium Metabisulfite, pH 5.3, 25° C.
[9] = Sodium Thiosulfate, pH 5.3, 5° C.
[10] = Sodium Thiosulfate, pH 5.3, 25° C.
[11] = Edetate Disodium 0.1%, Sodium Metabisulfite 0.1%, Sodium Thiosulfate 0.2%, Glycerin (167 mOsm/kg), 5° C.
[12] = Edetate Disodium 0.1%, Sodium Metabisulfite 0.1%, Sodium Thiosulfate 0.2%, Glycerin (167 mOsm/kg), 25° C.
[13] = Edetate Disodium 0.2%, Sodium Metabisulfite 0.2%, Sodium Thiosulfate 0.3%, Glycerin (287 mOsm/kg), 5° C.
[14] = Edetate Disodium 0.2%, Sodium Metabisulfite 0.2%, Sodium Thiosulfate 0.3%, Glycerin (287 mOsm/kg), 25° C.
[15] = Edetate Disodium 0.2%, Sodium Metabisulfite 0.2%, Sodium Thiosulfate 0.3%, Glycerin (287 mOsm/kg), 40° C.
[16] = Edetate Disodium 0.2%, Sodium Metabisulfite 0.2%, Sodium Thiosulfate 0.3%, NaCl (330 mOsm/kg), 5° C.

In the case of `C[C@H]1c2cccc(O)c2C(O)=C2C(=O)[C@]3(O)C(O)=C(C(N)=O)C(=O)[C@H](N(C)C)[C@@H]3[C@@H](O)[C@@H]21` [4-epidoxycycline], the “function as an antibiotic” value [1] is listed as “does not function as an antibiotic”.

In the case of `C[C@H]1c2cccc(O)c2C(=O)C2=C(O)[C@]3(O)C(=O)C(C(N)=O)=C(O)[C@@H](N(C)C)[C@@H]3[C@@H](O)[C@@H]21` [doxycycline], the “doxycycline stability t = 0” value ([2]; Disodium Edetate, pH 5.3) is reported as 100%, the “doxycycline stability 2 wks” value [2, 5] is reported as 99% and the “doxycycline stability 4 wks” value [2, 5] is reported as 96%. The “doxycycline stability 2 wks” value [2, 6] was 97%, the “doxycycline stability 4 wks” value [2, 6] was 88% and the “doxycycline stability 2 wks” value ([2]; Disodium Edetate, pH 5.3, 40° C.) was 24%. The “doxycycline stability t = 0” value ([2]; Disodium Edetate, pH 7) was 100%, the “doxycycline stability 2 wks” value ([2]; Disodium Edetate, pH 7, 5° C.) was 96% and the “doxycycline stability 2 wks” value ([2]; Disodium Edetate, pH 7, 25° C.) was 55%. The “doxycycline stability 2 wks” value ([2]; Disodium Edetate, pH 7, 40° C.) was 4%, the “doxycycline stability t = 0” value ([2]; None (no antioxidant/chelating agent), pH 5.3) was 100% and the “doxycycline stability 2 wks” value ([2]; None, pH 5.3, 5° C.) was 96%. For the same molecule, the “doxycycline stability 4 wks” value ([2]; None, pH 5.3, 5° C.) was 93%, the “doxycycline stability 2 wks” value ([2]; None, pH 5.3, 25° C.) was 73% and the “doxycycline stability 4 wks” value ([2]; None, pH 5.3, 25° C.) was 59%. The “doxycycline stability 2 wks” value ([2]; None, pH 5.3, 40° C.) was 19%, the “doxycycline stability t = 0” value ([2]; None, pH 7) was 100% and the “doxycycline stability 2 wks” value ([2]; None, pH 7, 5° C.) was 94%. The “doxycycline stability 2 wks” value ([2]; None, pH 7, 25° C.) was 49%, the “doxycycline stability 2 wks” value ([2]; None, pH 7, 40° C.) was 11% and the “doxycycline stability t = 0” value ([2]; Sodium Bisulfite, pH 5.3) was 100%. The “doxycycline stability 2 wks” value ([2]; Sodium Bisulfite, pH 5.3, 5° C.) was 88%, the “doxycycline stability 2 wks” value ([2]; Sodium Bisulfite, pH 5.3, 25° C.) was 72% and the “doxycycline stability 2 wks” value ([2]; Sodium Bisulfite, pH 5.3, 40° C.) was 57%. For the same molecule, the “doxycycline stability t = 0” value ([2]; Sodium Bisulfite, pH 7) was 100%, the “doxycycline stability 2 wks” value ([2]; Sodium Bisulfite, pH 7, 5° C.) was 91% and the “doxycycline stability 2 wks” value ([2]; Sodium Bisulfite, pH 7, 25° C.) was 83%. The “doxycycline stability 2 wks” value ([2]; Sodium Bisulfite, pH 7, 40° C.) was 48%, the “doxycycline stability t = 0” value ([2]; Sodium Metabisulfite, pH 5.3) was 100% and the “doxycycline stability 2 wks” value [2, 7] was 99%. For the same molecule, the “doxycycline stability 4 wks” value [2, 7] was 97%, the “doxycycline stability 2 wks” value [2, 8] was 92% and the “doxycycline stability 4 wks” value [2, 8] was 90%. For the same molecule, the “doxycycline stability 2 wks” value ([2]; Sodium Metabisulfite, pH 5.3, 40° C.) was 59%, the “doxycycline stability t = 0” value ([2]; Sodium Metabisulfite, pH 7) was 100% and the “doxycycline stability 2 wks” value ([2]; Sodium Metabisulfite, pH 7, 5° C.) was 97%. For the same molecule, the “doxycycline stability 2 wks” value ([2]; Sodium Metabisulfite, pH 7, 25° C.) was 86%, the “doxycycline stability 2 wks” value ([2]; Sodium Metabisulfite, pH 7, 40° C.) was 51% and the “doxycycline stability t = 0” value ([2]; Sodium Thiosulfate, pH 5.3) was 100%. The “doxycycline stability 2 wks” value [2, 9] was 99%, the “doxycycline stability 4 wks” value [2, 9] was 99% and the “doxycycline stability 2 wks” value [2, 10] was 95%. For the same molecule, the “doxycycline stability 4 wks” value [2, 10] was 93%, the “doxycycline stability 2 wks” value ([2]; Sodium Thiosulfate, pH 5.3, 40° C.) was 67% and the “doxycycline stability t = 0” value ([2]; Sodium Thiosulfate, pH 7) was 100%. For the same molecule, the “doxycycline stability 2 wks” value ([2]; Sodium Thiosulfate, pH 7, 5° C.) was 96%, the “doxycycline stability 2 wks” value ([2]; Sodium Thiosulfate, pH 7, 25° C.) was 91% and the “doxycycline stability 2 wks” value ([2]; Sodium Thiosulfate, pH 7, 40° C.) was 7%. For the same molecule, the “doxycycline stability t = 0” value ([2]; Thiourea, pH 5.3) was 100%, the “doxycycline stability 2 wks” value ([2]; Thiourea, pH 5.3, 5° C.) was 98% and the “doxycycline stability 2 wks” value ([2]; Thiourea, pH 5.3, 25° C.) was 80%. The “doxycycline stability 2 wks” value ([2]; Thiourea, pH 5.3, 40° C.) was 22%, the “doxycycline stability t = 0” value ([2]; Thiourea, pH 7) was 100% and the “doxycycline stability 2 wks” value ([2]; Thiourea, pH 7, 5° C.) was 98%. For the same molecule, the “doxycycline stability 2 wks” value ([2]; Thiourea, pH 7, 25° C.) was 74%, the “doxycycline stability 2 wks” value ([2]; Thiourea, pH 7, 40° C.) was 9% and the degradation ([2]; aqueous solution, neutral pH, 5° C., no additive) was 6%. The degradation ([2]; aqueous solution, neutral pH, room temperature (RT), no additive) was 51%, the degradation ([2]; aqueous solution, neutral pH, room temperature (RT), no additive, listed as doxcycline) was “about 51%” and the degradation ([2]; pH 5.3, RT, addition of edetate disodium) was 3%. For the same molecule, the degradation ([2]; pH 5.3, RT, addition of sodium bisulfate) was 28%, the degradation ([2]; pH 5.3, RT, addition of sodium metabisulfite) was 8% and the degradation ([2]; pH 5.3, RT, addition of sodium thiosulfate) was 5%. The degradation ([2]; pH 5.3, RT, addition of thiourea) was 20%, the degradation ([2]; pH 5.3, RT, no additive) was 28% and 27% and the degradation ([3]; 0.025% w/w doxycycline, edetate, metabisulfite, thiosulfate, phosphate-citrate buffer, glycerin, pH 5.2-5.8, 12 weeks at 5° C.) was “no detectable degradation”. For the same molecule, the “doxycycline stability 5 Wks” value [3, 11] was 102.8%, the “doxycycline stability 8 Wks” value [3, 11] was 100.6% and the “doxycycline stability 12 Wks” value [3, 11] was 99.4%. For the same molecule, the “doxycycline stability 5 Wks” value [3, 12] was 97.0%, the “doxycycline stability 8 Wks” value [3, 12] was 90.4% and the “doxycycline stability 12 Wks” value [3, 12] was 85.1%. The “doxycycline stability 5 Wks” value ([3]; Edetate Disodium 0.1%, Sodium Metabisulfite 0.1%, Sodium Thiosulfate 0.2%, Glycerin (167 mOsm/kg), 40° C.) was 58.2%, the “doxycycline stability 5 Wks” value ([3]; Edetate Disodium 0.1%, Sodium Metabisulfite 0.1%, Sodium Thiosulfate 0.2%, NaCl (325 mOsm/kg), 5° C.) was 103.6% and the “doxycycline stability 5 Wks” value ([3]; Edetate Disodium 0.1%, Sodium Metabisulfite 0.1%, Sodium Thiosulfate 0.2%, NaCl (325 mOsm/kg), 25° C.) was 96.6%. The “doxycycline stability 5 Wks” value ([3]; Edetate Disodium 0.1%, Sodium Metabisulfite 0.1%, Sodium Thiosulfate 0.2%, NaCl (325 mOsm/kg), 40° C.) was 55.8%, the “doxycycline stability 5 Wks” value ([3]; Edetate Disodium 0.1%, Sodium Metabisulfite 0.1%, Glycerin (138 mOsm/kg), 5° C.) was 94.6% and the “doxycycline stability 5 Wks” value ([3]; Edetate Disodium 0.1%, Sodium Metabisulfite 0.1%, Glycerin (138 mOsm/kg), 25° C.) was 84.9%. For the same molecule, the “doxycycline stability 5 Wks” value ([3]; Edetate Disodium 0.1%, Sodium Metabisulfite 0.1%, Glycerin (138 mOsm/kg), 40° C.) was 47.1%, the “doxycycline stability 5 Wks” value ([3]; Edetate Disodium 0.1%, Sodium Metabisulfite 0.1%, NaCl (305 mOsm/kg), 5° C.) was 90.6% and the “doxycycline stability 5 Wks” value ([3]; Edetate Disodium 0.1%, Sodium Metabisulfite 0.1%, NaCl (305 mOsm/kg), 25° C.) was 81.8%. For the same molecule, the “doxycycline stability 5 Wks” value ([3]; Edetate Disodium 0.1%, Sodium Metabisulfite 0.1%, NaCl (305 mOsm/kg), 40° C.) was 46.5%, the “doxycycline stability 2 Wks” value [3, 13] was 103.0% and the “doxycycline stability 5 Wks” value [3, 13] was 101.2%. The “doxycycline stability 8 Wks” value [3, 13] was 100.6%, the “doxycycline stability 12 Wks” value [3, 13] was 100.4% and the “doxycycline stability Init.” value [3, 13] was 103.2%. For the same molecule, the “doxycycline stability 2 Wks” value [3, 14] was 101.0%, the “doxycycline stability 5 Wks” value [3, 14] was 93.3% and the “doxycycline stability 8 Wks” value [3, 14] was 85.2%. For the same molecule, the “doxycycline stability 12 Wks” value [3, 14] was 84.8%, the “doxycycline stability 2 Wks” value [3, 15] was 80.3% and the “doxycycline stability 5 Wks” value [3, 15] was 55.1%. The “doxycycline stability 2 Wks” value [3, 16] was 103.0%, the “doxycycline stability Init.” value [3, 16] was 103.4% and the “doxycycline stability 2 Wks” value ([3]; Edetate Disodium 0.2%, Sodium Metabisulfite 0.2%, Sodium Thiosulfate 0.3%, NaCl (330 mOsm/kg), 25° C.) was 100.6%. For the same molecule, the “doxycycline stability 2 Wks” value ([3]; Edetate Disodium 0.2%, Sodium Metabisulfite 0.2%, Sodium Thiosulfate 0.3%, NaCl (330 mOsm/kg), 40° C.) was 79.9%, the “effect of fortifying with 4-epidoxycycline on degradation” value [4] was “reduced degradation of doxycycline during storage” and the “share of degradation by epimerization into 4-epidoxycycline” value [4] was “over half of the degradation”. The “doxycycline in solution lost to degradation” value ([4]; 12 months, 0.025 % w/w) was “about 0.0014 % w/w” and the “route of doxycycline degradation” value ([4]; 12 months, 0.025 % w/w) was “practically all of the degradation of doxycycline at 5 °C was through conversion into 4-epidoxycycline”.
